Article PMC5650142, “GPR40 partial agonists and AgoPAMs: Differentiating effects on glucose and hormonal secretions in the rodent” (PLoS ONE, 2017)
Where “and” joins values, the source holds several entries; their conditions need not be identical. Equal values may be shown once. Read-outs that look alike come from different tables or passages of the source.

Columns and labels:
human GPR40 [1] = molecular target: T1, human GPR40 (Homo sapiens, UniProt O14842); test: GPR40 binding assay, partial agonist tracer [3H]L358; parameters: expressed in transfected cells; host or cells: CHO / CHO-K1 cells, membrane preparation; details: for % Bound Normalized to 100 / %Bound: radioligand L-001533358;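 on %Bound: 100% is tracer binding with DMSO alone and 0% is full displacement by a standard compound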
T1 sequence (O14842 whole entry): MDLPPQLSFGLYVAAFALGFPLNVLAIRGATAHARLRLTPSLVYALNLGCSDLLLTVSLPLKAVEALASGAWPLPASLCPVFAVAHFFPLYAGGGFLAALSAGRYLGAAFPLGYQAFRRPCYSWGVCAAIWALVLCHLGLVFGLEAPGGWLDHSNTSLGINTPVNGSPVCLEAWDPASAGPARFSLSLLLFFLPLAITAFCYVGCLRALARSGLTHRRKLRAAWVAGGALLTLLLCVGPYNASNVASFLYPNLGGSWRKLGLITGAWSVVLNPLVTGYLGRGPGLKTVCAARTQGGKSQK
Protocol: Two small molecule tracers, the partial agonist [3H][…] and the AgoPAM [3H]25, are used to measure compound affinity at each site as described previously. Because of the allosteric coupling of the two sites and the nature of the assay, addition of a compound will either displace (binds to same site) or augment (binds to allosterically coupled site) radiotracer. Membranes expressing GPR40 were prepared from CHO cells stably expressing human GPR40. […] Sigma P8830) and were homogenized in 50 ml aliquots with a motor-driven glass Dounce homogenizer, 15 strokes at 1900 rpm on wet ice, repeating once. Homogenates were centrifuged at 2200 rpm for 10 min at 4°C. Supernatants were carefully removed and pooled. Homogenization and centrifugation were repeated until the debris pellet was translucent to maximize membrane recovery. Supernatants were then centrifuged at […] rpm for 20 min. at 4°C. […] Protein concentration was determined by Pierce BCA kit. […] The beads and membrane mixture is then vigorously mixed for 30 minutes at room temperature prior to addition to the assay. […] Next, 15 μl of the radioligand and 35 μl of the beads/membranes solution is added to each well. The assay plates are then sealed and incubated for 30 minutes at room temperature on an orbital shaker. The plates are allowed to settle for 16 hours and then counted on a TopCount scintillation counter (PE). […] Maximal % bound and IC50 are then determined for each test compound. 5 μg/well membrane together with 200 μg/well of PVT WGA SPA beads (GE #RPNG-0001) were suspended in a white 96 well plate with a final concentration of 50 μl/well in assay buffer (50 mM Tris, 10 mM MgCl2, and 2 mM EDTA). […] The plate is briefly mixed and incubated for 3-18 h at room temperature, before it is read on a MicroBeta plate counter (Perkin Elmer, MS, USA).

mouse GPR40 = molecular target: T2, mouse GPR40 (Mus musculus, UniProt Q76JU9); test: Mouse GPR40 IP1 accumulation assay; format: cell-based; details: for Efficacy (% Activation), Mouse: maximal % activity vs in-house partial agonist control
T2 construct: expressed in transfected cells; host or cells: CHO-K1 (methods)
T2 sequence (Q76JU9 whole entry): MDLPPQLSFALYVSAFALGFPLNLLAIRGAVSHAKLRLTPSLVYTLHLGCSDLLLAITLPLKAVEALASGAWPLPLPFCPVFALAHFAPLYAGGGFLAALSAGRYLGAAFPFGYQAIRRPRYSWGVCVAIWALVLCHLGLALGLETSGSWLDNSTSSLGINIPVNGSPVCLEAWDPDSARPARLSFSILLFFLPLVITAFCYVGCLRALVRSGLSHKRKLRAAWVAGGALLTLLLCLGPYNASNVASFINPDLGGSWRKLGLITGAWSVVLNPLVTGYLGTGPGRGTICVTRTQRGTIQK
Protocol: (§1) Stable cell lines expressing human GPR40 (hGPR40/HEK293), mouse GPR40 (mGPR40/CHO-K1), and rat GPR40 (rGPR40/CHO-K1) were cultured in DMEM media supplemented with 10% FBS, glutamine, non-essential amino acids, and penicillin/streptomycin. hGPR40/HEK293 & mGPR40/CHO-K1 cell media was supplemented with […] G418 (Life Technologies), while rGPR40/CHO-K1 cells were grown in […] blasticidin plus […] hygromycin (Life Technologies). Cell stocks were maintained and grown in a sub-confluent state using standard cell culture procedures. The day before the experiment, the cells were harvested with non-enzymatic cell dissociation buffer and re-suspended in DMEM supplemented with 10% FBS, glutamine, non-essential amino acids, penicillin/streptomycin at 0.15, 0.2 and 0.3 million cells per ml for human, mouse, and rat GPR40, respectively. […] The seeded plates were incubated overnight at 37 C.
(§2) On the day of the experiment, the growth media was removed from the assay by gently patting the assay plates on an absorbent sheet and 10 μl of IP1 stimulation buffer (Cis Bio IP-one Tb HTRF kit) supplemented with 50 mM LiCl is added to each well. Test compounds dissolved in DMSO were serially diluted in ½ log increments starting from 2 mM or 0.2 mM and 50 nl of the compound dilution was acoustically added to each well (final starting concentration 10 μM or 1 μM). Plates were then incubated for 60 minutes at room temperature and 10 μl of detection buffer (prepared as described in the Tb kit) is added to each well. The plates are then incubated one additional hour at room temperature. […] For each assay, a standard curve plate in which IP1 is titrated is also included. […] The percent activity at each concentration of test compound is determined using 0% activation (basal activity) determined in those wells that contain DMSO alone, while 100% activity is determined in wells that contained a concentration of a partial allosteric agonist know to activate GPR40. The % activity is then plotted versus the concentration of test compound and the dose response curve fitted to a standard 4-parameter non-linear regression model using a custom in-house developed software package (Merck & Co., Inc., MRL, Kenilworth, NJ, USA). Maximal % activity and EC50 are then determined for each test compound.

human GPR40 [2] = molecular target: T1, human GPR40; test: Human GPR40 IP1 accumulation assay; format: cell-based; parameters: expressed in transfected cells; details: for Efficacy (% Activation), Human: maximal % activity vs in-house partial agonist control
Protocol: as §1, §2

rat GPR40 = molecular target: T3, rat GPR40 (Rattus norvegicus, UniProt Q8K3T4); test: Rat GPR40 IP1 accumulation assay; format: cell-based; details: for Efficacy (% Activation), Rat: maximal % activity vs in-house partial agonist control
T3 construct: expressed in transfected cells; host or cells: CHO-K1 (methods)
T3 sequence (Q8K3T4 whole entry): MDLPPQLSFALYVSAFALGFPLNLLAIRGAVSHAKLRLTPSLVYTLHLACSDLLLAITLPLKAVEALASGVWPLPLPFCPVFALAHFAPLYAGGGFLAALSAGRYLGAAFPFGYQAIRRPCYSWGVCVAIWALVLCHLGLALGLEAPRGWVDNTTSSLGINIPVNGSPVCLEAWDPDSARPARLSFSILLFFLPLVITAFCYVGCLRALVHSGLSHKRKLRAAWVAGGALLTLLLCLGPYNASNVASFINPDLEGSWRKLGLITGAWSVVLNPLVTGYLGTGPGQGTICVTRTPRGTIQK
Protocol: as §1, §2

[3] = mean ± SD, n = 2–20, IP accumulation, read-out: Potency [EC50, nM] ± SD, Mouse
[4] = mean ± SD, n = 2–20, IP accumulation, read-out: Potency [EC50, nM] ± SD, Human
[5] = mean ± SD, n = 2–20, IP accumulation, read-out: Potency [EC50, nM] ± SD, Rat

With `C[C@H](C(=O)O)[C@H](c1ccc2c(c1)O[C@H](C1CN(Cc3cc(C(F)(F)F)ccc3C(F)(F)F)C1)CC2)C1CC1` [AP3] the “% Bound Normalized to 100” value (human GPR40 [1]; dose 0.318285 nM) was 82.24%, the “%Bound” value (human GPR40 [1]; dose 0.318285 nM) was 88.22% and the “% Bound Normalized to 100” value (human GPR40 [1]; dose 1.00578 nM) was 93.26%. The “%Bound” value (human GPR40 [1]; dose 1.00578 nM) was 99.24%, the “% Bound Normalized to 100” value (human GPR40 [1]; dose 3.17827 nM) was 115.15% and the “%Bound” value (human GPR40 [1]; dose 3.17827 nM) was 121.13%. For the same compound, the “% Bound Normalized to 100” value (human GPR40 [1]; dose 10.0433 nM) was 125.44%, the “%Bound” value (human GPR40 [1]; dose 10.0433 nM) was 131.41% and the “% Bound Normalized to 100” value (human GPR40 [1]; dose 31.7369 nM) was 126.76%. For the same compound, the “%Bound” value (human GPR40 [1]; dose 31.7369 nM) was 132.74%, the “% Bound Normalized to 100” value (human GPR40 [1]; dose 100.289 nM) was 126.17% and the “%Bound” value (human GPR40 [1]; dose 100.289 nM) was 132.15%. For the same compound, the “% Bound Normalized to 100” value (human GPR40 [1]; dose 316.912 nM) was 135.28%, the “%Bound” value (human GPR40 [1]; dose 316.912 nM) was 141.26% and the “% Bound Normalized to 100” value (human GPR40 [1]; dose 1001.44 nM) was 137.19%. The “%Bound” value (human GPR40 [1]; dose 1001.44 nM) was 143.17%, the “% Bound Normalized to 100” value (human GPR40 [1]; dose 3164.56 nM) was 164.81% and the “%Bound” value (human GPR40 [1]; dose 3164.56 nM) was 170.79%. The “% Bound Normalized to 100” value (human GPR40 [1]; dose 10000 nM) was 174.51%, the “%Bound” value (human GPR40 [1]; dose 10000 nM) was 180.49% and the “Mouse GPR40 Receptor Activation (%)” value (mouse GPR40; dose 1.50E-11 M) was -3.27%. For the same compound, the “Mouse GPR40 Receptor Activation (%)” value (mouse GPR40; dose 1.55E-08 M) was 446%, the “Mouse GPR40 Receptor Activation (%)” value (mouse GPR40; dose 2.43E-10 M) was 50% and the “Mouse GPR40 Receptor Activation (%)” value (mouse GPR40; dose 2.49E-07 M) was 525%. For the same compound, the “Mouse GPR40 Receptor Activation (%)” value (mouse GPR40; dose 3.89E-09 M) was 371%, the “Mouse GPR40 Receptor Activation (%)” value (mouse GPR40; dose 4.00E-12 M) was -5% and the “Mouse GPR40 Receptor Activation (%)” value (mouse GPR40; dose 6.10E-11 M) was 5%. The “Mouse GPR40 Receptor Activation (%)” value (mouse GPR40; dose 6.22E-08 M) was 431%, the “Mouse GPR40 Receptor Activation (%)” value (mouse GPR40; dose 9.72E-10 M) was 174% and the “%Act, Mouse GPR40, Functional Assay” value (mouse GPR40; individual determinations) was 596% and 682% and 213% and 314% and 487% and 456% and 680% and 434% and 501% and 418%. For the same compound, the EC50 (mouse GPR40; individual determinations, read-out: EC50 (nM), Mouse GPR40, Functional Assay) was 0.64 nM and 0.73 nM and 1.06 nM and 1.33 nM and 1.52 nM and 2.22 nM and 2.5 nM and 0.46 nM and 0.58 nM and 0.59 nM, the “Efficacy (% Activation), Mouse” value (mouse GPR40) was “(478%)” and the EC50 (mouse GPR40; [3]) was 1.2 ± 0.72 nM. For the same compound, the “Human GPR40 Receptor Activation (%)” value (human GPR40 [2]; dose 1.50E-11 M) was -1.6%, the “Human GPR40 Receptor Activation (%)” value (human GPR40 [2]; dose 1.55E-08 M) was 280% and the “Human GPR40 Receptor Activation (%)” value (human GPR40 [2]; dose 2.43E-10 M) was 54%. The “Human GPR40 Receptor Activation (%)” value (human GPR40 [2]; dose 2.49E-07 M) was 306%, the “Human GPR40 Receptor Activation (%)” value (human GPR40 [2]; dose 3.89E-09 M) was 288% and the “Human GPR40 Receptor Activation (%)” value (human GPR40 [2]; dose 4.00E-12 M) was -5%. The “Human GPR40 Receptor Activation (%)” value (human GPR40 [2]; dose 6.10E-11 M) was 7%, the “Human GPR40 Receptor Activation (%)” value (human GPR40 [2]; dose 6.22E-08 M) was 328% and the “Human GPR40 Receptor Activation (%)” value (human GPR40 [2]; dose 9.72E-10 M) was 183%. The “Human GPR40 Receptor Activation (%)” value (human GPR40 [2]; dose 9.95E-07 M) was 328%, the “%Act, HUMAN GPR40, Functional Assay” value (human GPR40 [2]; individual determinations) was 407% and 332% and 338% and 274% and 324% and 328% and 239% and 282% and 383% and 273% and the EC50 (human GPR40 [2]; individual determinations, read-out: EC50 (nM), HUMAN GPR40, Functional Assay) was 0.32 nM and 0.43 nM and 0.46 nM and 0.47 nM and 0.73 nM and 0.8 nM and 0.91 nM and 0.19 nM and 0.24 nM and 0.27 nM. The “Efficacy (% Activation), Human” value (human GPR40 [2]) was “(318%)”, the EC50 (human GPR40 [2]; [4]) was 0.48 ± 0.25 nM and the “Rat GPR40 Receptor Activation (%)” value (rat GPR40; dose 1.50E-11 M) was -10%. For the same compound, the “Rat GPR40 Receptor Activation (%)” value (rat GPR40; dose 1.55E-08 M) was 330%, the “Rat GPR40 Receptor Activation (%)” value (rat GPR40; dose 2.43E-10 M) was 24% and the “Rat GPR40 Receptor Activation (%)” value (rat GPR40; dose 2.49E-07 M) was 412%. The “Rat GPR40 Receptor Activation (%)” value (rat GPR40; dose 3.89E-09 M) was 269%, the “Rat GPR40 Receptor Activation (%)” value (rat GPR40; dose 4.00E-12 M) was -6.43% and the “Rat GPR40 Receptor Activation (%)” value (rat GPR40; dose 6.10E-11 M) was -0.311%. The “Rat GPR40 Receptor Activation (%)” value (rat GPR40; dose 6.22E-08 M) was 389%, the “Rat GPR40 Receptor Activation (%)” value (rat GPR40; dose 9.72E-10 M) was 121% and the “Rat GPR40 Receptor Activation (%)” value (rat GPR40; dose 9.95E-07 M) was 389%. The “%Act, Rat GPR40, Functional Assay” value (rat GPR40; individual determinations) was 265% and 529% and 336% and 568% and 267% and 374% and 399% and 444% and 459% and 365% and 466% and 382%, the EC50 (rat GPR40; individual determinations, read-out: EC50 (nM), Rat GPR40, Functional Assay) was 0.79 nM and 0.8 nM and 0.9 nM and 1.01 nM and 1.46 nM and 1.5 nM and 2.03 nM and 2.24 nM and 2.29 nM and 0.57 nM and 0.7 nM and 0.75 nM and the “Efficacy (% Activation), Rat” value (rat GPR40) was “(405%)”. The EC50 (rat GPR40; [5]) was 1.3 ± 0.63 nM.

For `O=C1NC(=O)C(C2CCOc3cc(Oc4ccc(C(F)(F)F)cc4Cl)ccc32)S1` (stereo not shown) [MK-2305, reference compound], the “Binding Results, % in parentheses, [^3H]L-358” value (human GPR40 [1]; WT human GPR40, maximal % (not defined)) was “(108%)”, the IC50 (human GPR40 [1]; WT human GPR40, n = 2–13, read-out: Binding Results [IC50, nM], [^3H]L-358) was 17 ± 4.7 nM and the “binding of [^3H]L358” value (human GPR40 [1]; human GPR40 membranes, competition binding) was “displace”. The “Efficacy (% Activation), Mouse” value (mouse GPR40) was “(157%)”, the EC50 (mouse GPR40; [3]) was 2.6 ± 0.8 nM and the “Efficacy (% Activation), Human” value (human GPR40 [2]) was “(85%)”. For the same compound, the EC50 (human GPR40 [2]; [4]) was 24 ± 13 nM, the “Efficacy (% Activation), Rat” value (rat GPR40) was “(155%)” and the EC50 (rat GPR40; [5]) was 5.2 ± 2.5 nM.
